The subject of the assay is mice fed with hypercholesterolemic diet. Nature of the assay: Cholesterol diet-induced hypercholesterolemia in mice (serum lipid profile). The class given is in vivo, Swiss mice. As to conditions: for HDL-C / LDL-C / Total cholesterol / Triglycerides / VLDL-C: hypercholesterolemic diet, fasting serum, mean ± S.E.M. As for the experimental part:
In the present invention, the observed unexpected synergistic lipid lowering effect of combination of Extract-A and nicotinic acid is evidenced by the test conducted in mice. Swiss mice of either sex were procured from Central Animal House facility; Panacea Biotec Ltd., India. Animals weighing 20-25 g at the time of testing were used throughout. All animals were dosed sequentially by the oral route with Extract-A and/or nicotinic acid suspended in 0.5% of carboxy methyl cellulose (CMC). A dosing volume of 10 ml/kg was used for each sequential suspension.
The fasting serum lipid profile (TC, TGs, LDL-C, HDL-C, and VLDL) was estimated before initiation of the experiment. Total study duration was of 8 weeks. Hypercholesterolemia was induced by feeding standard chow mixed with 1% cholesterol and 0.2% cholic acid to mice (Kaur and Kulkarni, 2000). Control animals received standard mice chow for 8 weeks whereas cholesterolemic control animals received hypercholesterolemic diet for 8 weeks. The presence of hyperlipidemia in mice was confirmed by estimating serum lipid parameters after 4 weeks. Thereafter, various doses of Extract-A and/or nicotinic acid were administered for another 4 weeks during which animals were fed with high cholesterol diet. Blood samples were collected from fasted mice and analyzed for any alteration in serum lipid profile after 4 weeks of test compound(s) administration.
All the data were expressed as mean ±S.E.M. (Standard Error of Mean). Student t-test was used to compare the lipid parameters between animals fed with standard and hypercholesterolemic diet. The difference between various drug treated groups was analyzed by ANOVA followed by Dunnett's test. A value of P<0.05 was considered as statistically significant.

Marks after values point to notes of the source that are not given here.

For the compound `O=C(O)c1cccnc1` [Nicotinic acid], for the setting “10 mg/kg p.o. for 4 weeks”, the HDL-C was 45.82 ± 4.9^a mg/dl, the LDL-C is listed as 65.5 ± 7.01^a mg/dl, the Total cholesterol is recorded as 118.0 ± 4.3^a mg/dl and the Triglycerides was 33.3 ± 2.6^a mg/dl. The VLDL-C (10 mg/kg p.o. for 4 weeks) was 20 ± 0.52^a mg/dl. Besides, under “20 mg/kg p.o. for 4 weeks”, the HDL-C is 42.16 ± 3.19^a mg/dl, the LDL-C is reported as 61.2 ± 2.14^a mg/dl, the Total cholesterol is listed as 109.5 ± 1.60^a mg/dl and the Triglycerides is listed as 30.66 ± 1.58^a mg/dl. The VLDL-C (20 mg/kg p.o. for 4 weeks) is on record as 6.13 ± 0.31^a mg/dl. For the same compound, where the note is “40 mg/kg p.o. for 4 weeks”, the HDL-C was 51.33 ± 2.04^a mg/dl, the LDL-C is recorded as 44.53 ± 2.17^a mg/dl, the Total cholesterol is recorded as 101.6 ± 2.59^a mg/dl and the Triglycerides is 29.0 ± 1.46^a mg/dl. Moreover, the VLDL-C (40 mg/kg p.o. for 4 weeks) was 5.8 ± 0.29^a mg/dl. In addition, under “10-40 mg/kg, p.o., dose dependently”, the “Effect on serum lipid parameters in comparison to hypercholesterolemic control (in words)” value is given as “reversed all the serum lipid parameters”.

The values above are taken from patent US20070027195A1, “Novel compositions comprising higher primary alcohols and nicottinic acid and process of preparation thereof” (PANACEA BIOTEC LTD., priority 2004, published 2007).
